Test [1] relates to P. aeruginosa biofilms. The experiment in a line: Biofilm growth assay (spreading biofilm on semi-solid agar), P. aeruginosa. Type of test: cell-based. To be noted: biofilm growth assay, overnight 37° C., vs negative controls, Tables 1-5; for IC85: Pseudomonas aeruginosa, read-out: P. aeruginosa: concentration that reduces the area of the spreading biofilm by greater than or equal to 85%. The text has this: (§1) “Biofilm Growth Assay” refers to an assay performed on semi-solid agar surface where the bacteria collectively move out from an inoculation point. To those skilled in the art, the act of bacteria collectively moving out from an inoculation point on a semi-solid surface may be referred to as swarming or a spreading biofilm. (Anderson, et al Microbiology, 2003, 149, 37-46; Daniels, et al. FEMS Microbiology Reviews, 2004, 28, 261-289). The procedure to perform this assay is described in detail in the Examples. This type of surface motility by bacteria has been reported in the literature by those skilled in the art. […] These references are incorporated herein by reference in their entirety.
(§2) The biofilm growth assay was carried out to measure swarming or biofilm spreading on semi-solid agar media in round plates (for example, 100×15 mm), also referred to as Petri dishes. For E. coli, the plates contained LB medium with 0.6% agar and 0.5% glucose. P. aeruginosa plates were made with M8 agar supplemented with 0.2% glucose, 100 μM CaCl2, 1 mM MgSO4, and 0.5% Casamino acids. The agar plates of this assay consisted of 0.4% to 0.7% agar (Bacto or Noble agar), although other media may also be used as described in the literature and known to those skilled in the art. Test compounds at the desired concentration were added to the cooled, autoclaved media. Portions of the media were then poured into the plates (20 mL/plate), and the plates allowed to dry at room temperature for approximately 3 to 4 hours. Alternatively, however, plates may be dried in a laminar flow hood for approximately fifteen to twenty minutes. Overnight cultures were grown in a 37° C. shaker in LB (E. coli) or TSB (P. aeruginosa). Plates were inoculated by placing 5 μL of the appropriate overnight culture in the centers of the plates. The plates then were incubated overnight at 37° C. The area of the zone of spreading bacteria was then measured and replicates are averaged. Percent inhibition was calculated as 100×(area without compound−area with compound)/(area without compound). An active compound was considered that which reduces the area of the spreading biofilm compared to negative controls by greater than or equal to 85%. The values shown in Table 1 are the concentrations of compounds (μg/ml) tested in the biofilm growth assay that reduce the area of the spreading biofilm compared to negative controls by greater than or equal to 85% unless noted differently in Table 1. A > (“greater than” symbol) as used in Table 1 is well understood to those skilled in the art as an indication that the listed concentration was not effective at this concentration.
(§3) All of the compounds shown in Tables 2, 3, 4, and 5, below, were prepared semi-synthetically from oleanolic acid, except for Compounds 2 and 3. Compound 2 was prepared from ursolic acid. Compound 3 was prepared from hederagenin, but could also be prepared from an oleanolic acid analog with a hydroxyl at C23 or C24. These compounds were tested in the spreading biofilm assay according to the methods detailed in Example I, above. The values shown in Tables 2, 3, 4, and 5 are the concentrations of compounds tested in the biofilm growth assay that reduce the area of the spreading biofilm compared to negative controls by greater than or equal to 85%.

The test system of test [2] is E. coli biofilms. The experiment in a line: Biofilm growth assay (spreading biofilm on semi-solid agar), E. coli. Type of test: cell-based. To be noted: biofilm growth assay, overnight 37° C., vs negative controls, Tables 1-5; for IC85: Escherichia coli, read-out: E. coli: concentration that reduces the area of the spreading biofilm by greater than or equal to 85%.
From the text: as §1, §2, §3

The results in this text go back to patent US8324264B1, “Inhibitors of bacterial biofilms and related methods” (Sequoia Sciences, Inc., priority 2011, dated 2012).

Values after ≈ are worked out from the molar mass of the structure shown.

On to `Cn1cc(C2=C3[C@@H]4CC(C)(C)CC[C@]4(C(=O)O)CC[C@@]3(C)[C@]3(C)CC[C@H]4C(C)(C)c5n[nH]c(N)c5C[C@]4(C)C3C2)cn1` (stereo partly drawn) [Example 28, (4aS,6aS,6bR,8aR,13aR,15bS)-12-Amino-2,2,6a,6b,9,9,13a-heptamethyl-15-(1-methyl-1H-pyrazol-4-yl)-2,3,4,4a,5,6,6a,6b,7,8,8a,9,11,13,13a,13b,14,15b-octadecahydro-1H-chryseno[1,2-f]indazole-4-a-carboxylic acid], for which the “P. aeruginosa: concentration that reduces the area of the spreading biofilm by greater than or equal to 85%” value in test [1] was found to be 1 µg/mL. In addition, in test [2], the “E. coli: concentration that reduces the area of the spreading biofilm by greater than or equal to 85%” value is 2 µg/mL.
Regarding `CC1(C)CC[C@]2(C(=O)Nc3nnc(N)s3)CC[C@]3(C)C(=CCC4[C@@]5(C)Cc6c(n[nH]c6N)C(C)(C)C5CC[C@]43C)C2C1` (stereo partly drawn) [Compound 71, (4aS,6aS,6bR,13aR)-12-Amino-N-(5-amino-1,3,4-thiadiazol-2-yl)-2,2,6a,6b,9,9,13a-heptamethyl-2,3,4,4a,5,6,6a,6b,7,8,8a,9,11,13,13a,13b,14,15b-octadecahydro-1H-chryseno[1,2-f]indazole-4-a-carboxamide], the results for the IC85 in test [1] and in test [2] were 0.5 µg/mL (≈ 0.845 µM) and 2 µg/mL (≈ 3.38 µM), respectively.
The matching figures for `CC1(C)CC[C@]2(C(=O)O)CC[C@]3(C)C(=CCC4[C@@]5(C)Cc6c(n[nH]c6Br)C(C)(C)C5CC[C@]43C)C2C1` (stereo partly drawn) [H]: 8 µg/mL (≈ 14.3 µM) and over 8 µg/mL.
For `CC1(C)CC[C@]2(C(=O)O)CC[C@]3(C)C(C(=O)C=C4[C@@]5(C)Cc6c(n[nH]c6N)C(C)(C)[C@@H]5CC[C@]43C)[C@@H]2C1` (stereo partly drawn) [M], in that order: 8 µg/mL (≈ 15.8 µM) and 8 µg/mL (≈ 15.8 µM).
Regarding `CC1(C)CC[C@]2(c3n[nH]c(O)c3CCO)CC[C@]3(C)C(=CCC4[C@@]5(C)Cc6c(n[nH]c6N)C(C)(C)C5CC[C@]43C)C2C1` (stereo partly drawn) [Compound 81, 3-((4aS,6aS,6bR,13aR)-12-Amino-2,2,6a,6b,9,9,13a-heptamethyl-2,3,4,4a,5,6,6a,6b,7,8,8a,9,11,13,13a,13b,14,15b-octadecahydro-1H-chryseno[1,2-f]indazol-4-a-yl)-4-(2-hydroxyethyl)-1H-pyrazol-5-ol], the “P. aeruginosa: concentration that reduces the area of the spreading biofilm by greater than or equal to 85%” value in test [1] was found to be 0.5 µg/mL. For the same compound, in test [2], the “E. coli: concentration that reduces the area of the spreading biofilm by greater than or equal to 85%” value amounted to 1 µg/mL.
For `C=C(C)[C@@H]1CC[C@]2(C(=O)O)CC[C@]3(C)[C@H](CC[C@@H]4[C@@]5(C)CC[C@H](O)C(C)(C)[C@@H]5CC[C@]43C)[C@@H]12` [Betulinic acid, reference compound], the IC85 in test [1] and in test [2] was over 16 µg/mL in each case.
Turning to `CC1(C)CC[C@]2(C(=O)NO)CC[C@]3(C)C(=CCC4[C@@]5(C)Cc6c(n[nH]c6N)C(C)(C)[C@@H]5CC[C@]43C)[C@@H]2C1` (stereo partly drawn) [Compound 65, (4aS,6aS,6bR,13aR)-12-Amino-N-hydroxy-2,2,6a,6b,9,9,13a-heptamethyl-2,3,4,4a,5,6,6a,6b,7,8,8a,9,11,13,13a,13b,14,15b-octadecahydro-1H-chryseno[1,2-f]indazole-4-a-carboxamide], the IC85 in test [1] and in test [2] was 0.25 µg/mL (≈ 0.491 µM) in each case.
Regarding `CC1(C)CC[C@]2(C(=O)O)CC[C@]3(C)C(=C(c4ccc(N5CCNCC5)cc4)CC4[C@@]5(C)Cc6c(n[nH]c6N)C(C)(C)C5CC[C@]43C)C2C1` (stereo partly drawn) [Example 50, (4aS,6aS,6bR,13aR)-12-Amino-2,2,6a,6b,9,9,13a-heptamethyl-15-(4-(piperazin-1-yl)phenyl)-2,3,4,4a,5,6,6a,6b,7,8,8a,9,11,13,13a,13b,14,15b-octadecahydro-1H-chryseno[1,2-f]indazole-4-a-carboxylic acid], the “P. aeruginosa: concentration that reduces the area of the spreading biofilm by greater than or equal to 85%” value in test [1] came to 2 µg/mL. Besides, in test [2], the “E. coli: concentration that reduces the area of the spreading biofilm by greater than or equal to 85%” value was found to be 1 µg/mL.
The matching figures for `CC1(C)CC[C@]2(C(=O)O)CC[C@]3(C)C(=C(c4ccc(N5CCCC5)nc4)CC4[C@@]5(C)Cc6c(n[nH]c6N)C(C)(C)C5CC[C@]43C)C2C1` (stereo partly drawn) [Example 45, (4aS,6aS,6bR,13aR)-12-Amino-2,2,6a,6b,9,9,13a-heptamethyl-15-(6-(pyrrolidin-1-yl)pyridin-3-yl)-2,3,4,4a,5,6,6a,6b,7,8,8a,9,11,13,13a,13b,14,15b-octadecahydro-1H-chryseno[1,2-f]indazole-4-a-carboxylic acid]: 0.5 µg/mL and 1 µg/mL.
On to `CC1(C)CC[C@]2(C(=O)O)CC[C@]3(C)C(=CCC4[C@@]5(C)Cc6c(n[nH]c6CO)C(C)(C)C5CC[C@]43C)C2C1` (stereo partly drawn) [G], for which the IC85 in test [1] and in test [2] was over 8 µg/mL in each case.
As to `CN1CCN(c2ccc(C3=C4C5CC(C)(C)CC[C@]5(C(=O)O)CC[C@@]4(C)[C@]4(C)CCC5C(C)(C)c6n[nH]c(N)c6C[C@]5(C)C4C3)cc2)CC1` (stereo partly drawn) [Example 53, (4aS,6aS,6bR,13aR)-12-Amino-2,2,6a,6b,9,9,13a-heptamethyl-15-(4-(4-methylpiperazin-1-yl)phenyl)-2,3,4,4a,5,6,6a,6b,7,8,8a,9,11,13,13a,13b,14,15b-octadecahydro-1H-chryseno[1,2-f]indazole-4-a-carboxylic acid], the “P. aeruginosa: concentration that reduces the area of the spreading biofilm by greater than or equal to 85%” value in test [1] is 0.5 µg/mL. Further, the “E. coli: concentration that reduces the area of the spreading biofilm by greater than or equal to 85%” value in test [2] came out at 2 µg/mL.
As to `CC1(C)CC[C@]2(C(=O)O)CC[C@]3(C)C(=C(c4cccc(F)c4)CC4[C@@]5(C)Cc6c(n[nH]c6N)C(C)(C)[C@@H]5CC[C@]43C)[C@@H]2C1` (stereo partly drawn) [Example 17, (4aS,6aS,6bR,8aR,13aR,15bS)-12-Amino-15-(3-fluorophenyl)-2,2,6a,6b,9,9,13a-heptamethyl-2,3,4,4a,5,6,6a,6b,7,8,8a,9,11,13,13a,13b,14,15b-octadecahydro-1H-chryseno[1,2-f]indazole-4-a-carboxylic acid], the “P. aeruginosa: concentration that reduces the area of the spreading biofilm by greater than or equal to 85%” value in test [1] came out at 0.5 µg/mL. The “E. coli: concentration that reduces the area of the spreading biofilm by greater than or equal to 85%” value in test [2] is over 2 µg/mL.
Turning to `CC1(C)CC[C@]2(C(=O)O)CC[C@]3(C)C(=C(c4c[nH]cc4CN4CCOCC4)CC4[C@@]5(C)Cc6c(n[nH]c6N)C(C)(C)[C@@H]5CC[C@]43C)[C@@H]2C1` (stereo partly drawn) [Example 33, (4aS,6aS,6bR,8aR,13aR,15bS)-12-Amino-2,2,6a,6b,9,9,13a-heptamethyl-15-(4-(morpholinomethyl)-1H-pyrrol-3-yl)-2,3,4,4a,5,6,6a,6b,7,8,8a,9,11,13,13a,13b,14,15b-octadecahydro-1H-chryseno[1,2-f]indazole-4-a-carboxylic acid], the “P. aeruginosa: concentration that reduces the area of the spreading biofilm by greater than or equal to 85%” value in test [1] was 2 µg/mL. For the same compound, the “E. coli: concentration that reduces the area of the spreading biofilm by greater than or equal to 85%” value in test [2] is 4 µg/mL.
Turning to `CC1(C)CC[C@]2(C(=O)O)CC[C@]3(C)C(=C(c4cccc(O)c4)CC4[C@@]5(C)Cc6c(n[nH]c6N)C(C)(C)C5CC[C@]43C)C2C1` (stereo partly drawn) [Example 16, (4aS,6aS,6bR,13aR)-12-Amino-15-(3-hydroxyphenyl)-2,2,6a,6b,9,9,13a-heptamethyl-2,3,4,4a,5,6,6a,6b,7,8,8a,9,11,13,13a,13b,14,15b-octadecahydro-1H-chryseno[1,2-f]indazole-4-a-carboxylic acid], the IC85 in test [1] was 1 µg/mL (≈ 1.71 µM); in test [2], 2 µg/mL (≈ 3.41 µM).
As to `CC1=C2[C@@H]3CC(C)(C)CC[C@]3(C(=O)O)CC[C@@]2(C)[C@]2(C)CC[C@H]3C(C)(C)c4n[nH]c(N)c4C[C@]3(C)C2C1` (stereo partly drawn) [Example 4, (4aS,6aS,6bR,8aR,13aR,15bS)-12-Amino-2,2,6a,6b,9,9,13a,15-octamethyl-2,3,4,4a,5,6,6a,6b,7,8,8a,9,11,13,13a,13b,14,15b-octadecahydro-1H-chryseno[1,2-f]indazole-4-a-carboxylic acid], the IC85 in test [1] was 0.25 µg/mL (≈ 0.492 µM); in test [2], 1 µg/mL (≈ 1.97 µM).
